Data set [1] addresses T1, Estrogen receptor (Homo sapiens) (UniProt P03372).
T1 sequence (whole entry): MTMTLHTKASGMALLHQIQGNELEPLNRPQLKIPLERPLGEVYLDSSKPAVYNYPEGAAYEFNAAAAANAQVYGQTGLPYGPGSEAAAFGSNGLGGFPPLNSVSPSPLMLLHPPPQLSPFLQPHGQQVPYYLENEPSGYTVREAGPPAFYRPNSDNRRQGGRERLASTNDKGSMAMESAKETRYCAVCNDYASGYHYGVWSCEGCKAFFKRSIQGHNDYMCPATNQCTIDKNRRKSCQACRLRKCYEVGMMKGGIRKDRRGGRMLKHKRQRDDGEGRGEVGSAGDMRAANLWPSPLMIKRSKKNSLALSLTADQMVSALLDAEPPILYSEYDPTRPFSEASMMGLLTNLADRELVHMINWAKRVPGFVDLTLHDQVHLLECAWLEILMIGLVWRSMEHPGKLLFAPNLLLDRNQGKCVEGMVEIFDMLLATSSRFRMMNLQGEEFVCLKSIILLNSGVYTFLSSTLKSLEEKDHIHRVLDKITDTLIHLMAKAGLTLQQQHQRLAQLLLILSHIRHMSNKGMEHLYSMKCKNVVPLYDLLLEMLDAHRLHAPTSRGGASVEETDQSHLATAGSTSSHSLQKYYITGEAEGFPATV
Description: Inhibition of [3H]estradiol binding to human estrogen receptor alpha.

The target of data set [2] is Estrogen receptor beta (Homo sapiens) (UniProt Q92731). Description: Inhibition of [3H]estradiol binding to human estrogen receptor beta.
A short description of data set [3]: pKa was determined. Type of data set: physicochemical.

This note sets out measurements from ChEMBL document CHEMBL1138654, “Ring nitrogen-substituted non-steroidal estrogens: pyridine and pyrimidine analogs of the phenol in deoxyhexestrol experience resonance constraints on preferred ligand conformation” (Bioorg Med Chem Lett, 2004).

SMILES strings stand for the structures.

Chain of Estrogen receptor beta (Homo sapiens) (Q92731 whole entry): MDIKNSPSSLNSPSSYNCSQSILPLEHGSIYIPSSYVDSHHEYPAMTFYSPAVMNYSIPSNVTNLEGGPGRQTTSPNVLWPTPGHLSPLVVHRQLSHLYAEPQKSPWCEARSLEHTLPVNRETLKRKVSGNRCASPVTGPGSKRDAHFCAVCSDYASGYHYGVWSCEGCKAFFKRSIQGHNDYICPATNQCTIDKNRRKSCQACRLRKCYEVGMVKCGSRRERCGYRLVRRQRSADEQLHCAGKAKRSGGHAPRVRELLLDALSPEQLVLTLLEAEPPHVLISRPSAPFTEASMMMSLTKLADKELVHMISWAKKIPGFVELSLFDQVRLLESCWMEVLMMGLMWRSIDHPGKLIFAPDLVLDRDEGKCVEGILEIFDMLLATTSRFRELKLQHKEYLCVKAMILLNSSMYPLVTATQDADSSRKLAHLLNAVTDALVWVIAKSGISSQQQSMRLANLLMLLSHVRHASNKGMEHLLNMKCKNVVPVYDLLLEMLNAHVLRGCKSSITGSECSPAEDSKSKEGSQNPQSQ

For the compound `CC(c1ccc(O)cc1)C(C)c1ccc(O)cc1` (stereo not drawn), the relative binding affinity (RBA) was 2.2 in data set [1] and 40 in data set [2].
For the compound `CCC(c1ccccc1)N(CC)c1ncc(O)cn1` (stereo not drawn), the pKa (commonly the negative logarithm of the acid dissociation constant) in data set [3] turned out to be 3.9.
